According to US20090118274A1, “MONOCYCLIC AMINOPROPYL TETRAHYDRO-PYRAZOLO-PYRIDINE MODULATORS OF CATHEPSIN S” (priority 2007, published 2009):
Like-named read-outs stand apart in the source and are kept apart here.

Biological target: T1, Recombinant human cathepsin S (CatS) (Homo sapiens, UniProt P25774)
T1 construct: made in house
Test: Recombinant human cathepsin S (CatS) fluorogenic substrate inhibition assay
Assay type: biochemical
Method: Recombinant human cathepsin S (CatS) was expressed in the baculovirus system and purified in one step with a thiopropyl-sepharose column. […] The assay is run in 150 mM sodium acetate pH 5.0 containing 1.5 mM DTT and 150 mM NaCl. […] Measurements are taken every min for 20 min. The rate is calculated from the slope of the increase in fluorescence and the percent inhibition is calculated from this.

[1] = average of results obtained, substrate Z-Valine-Valine-Arginine-AMC 10 μM, pH 5.0, read-out: CatS IC50

T1 sequence (P25774 115-331): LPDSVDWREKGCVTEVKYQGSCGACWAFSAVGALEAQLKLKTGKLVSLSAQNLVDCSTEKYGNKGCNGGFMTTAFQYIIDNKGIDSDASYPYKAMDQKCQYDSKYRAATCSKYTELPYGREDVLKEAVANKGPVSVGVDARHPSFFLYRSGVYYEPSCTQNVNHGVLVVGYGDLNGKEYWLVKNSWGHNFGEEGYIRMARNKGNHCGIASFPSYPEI

CS(=O)(=O)N1CCc2c(c(-c3ccc(C(F)(F)F)c(CNC(=O)C4CCCCCC4)c3)nn2CC(O)CN2CCCC2)C1 (stereo not drawn) [Example 160, Cycloheptanecarboxylic acid 5-[1-(2-hydroxy-3-pyrrolidin-1-yl-propyl)-5-methanesulfonyl-4,5,6,7-tetrahydro-1H-pyrazolo[4,3-c]pyridin-3-yl]-2-trifluoromethyl-benzylamide]
IC50 [1]: 320 nM

CS(=O)(=O)N1CCc2c(c(-c3ccc(Cl)c(COCc4ccc(F)cc4)c3)nn2CCCN2CCCC2)C1 [Example 4, 3-[4-Chloro-3-(4-fluoro-benzyloxymethyl)-phenyl]-5-methanesulfonyl-1-(3-pyrrolidin-1-yl-propyl)-4,5,6,7-tetrahydro-1H-pyrazolo[4,3-c]pyridine]
IC50 [1]: 1450 nM

CC(C)=CC(=O)NCc1cc(-c2nn(CC(O)CN3CCC(F)(F)CC3)c3c2CN(S(C)(=O)=O)CC3)ccc1C(F)(F)F (stereo not drawn) [Example 31, 3-Methyl-but-2-enoic acid 5-{1-[3-(4,4-difluoro-piperidin-1-yl)-2-hydroxy-propyl]-5-methanesulfonyl-4,5,6,7-tetrahydro-1H-pyrazolo[4,3-c]pyridin-3-yl}-2trifluoromethyl-benzylamide]
IC50 [1]: 110 nM

CC(C)=CC(=O)NCc1cc(-c2nn(CC(O)CN3CCC(N(C)C)C3)c3c2CN(S(C)(=O)=O)CC3)ccc1C(F)(F)F (stereo not drawn) [Example 33, 3-Methyl-but-2-enoic acid 5-{1-[3-(3-dimethylamino-pyrrolidin-1-yl)-2-hydroxy-propyl]-5-methanesulfonyl-4,5,6,7-tetrahydro-1H-pyrazolo[4,3-c]pyridin-3-yl}-2-trifluoromethyl-benzylamide]
IC50 [1]: 460 nM

CS(=O)(=O)N1CCc2c(c(-c3ccc(Cl)c(CNC(=O)c4ccc(F)cc4)c3)nn2CC(O)CN2CCC(F)(F)CC2)C1 (stereo not drawn) [Example 10, N-(2-Chloro-5-{1-[3-(4,4-difluoro-piperidin-1-yl)-2-hydroxy-propyl]-5-methanesulfonyl-4,5,6,7-tetrahydro-1H-pyrazolo[4,3-c]pyridin-3-yl}-benzyl)-4-fluoro-benzamide]
IC50 [1]: 90 nM

CS(=O)(=O)N1CCc2c(c(-c3ccc(C(F)(F)F)c(CNC(=O)c4ccc(F)cc4)c3)nn2CC(O)CN2CCC[C@H]2C(N)=O)C1 (stereo partly drawn) [Example 97, (S)-1-[3-(3-{3-[(4-Fluoro-benzoylamino)-methyl]-4-trifluoromethyl-phenyl}-5-methanesulfonyl-4,5,6,7-tetrahydro-pyrazolo[4,3-c]pyridin-1-yl)-2-hydroxy-propyl]-pyrrolidine-2-carboxylic acid amide]
IC50 [1]: 240 nM

CS(=O)(=O)N1CCc2c(c(-c3ccc(C(F)(F)F)c(CNC(=O)c4ccc(O)cc4)c3)nn2CCCN2CCC3(CCNC3=O)CC2)C1 [Example 142, 4-Hydroxy-N-(5-{5-methanesulfonyl-1-[3-(1-oxo-2,8-diaza-spiro[4.5]dec-8-yl)-propyl]-4,5,6,7-tetrahydro-1H-pyrazolo[4,3-c]pyridin-3-yl}-2-trifluoromethyl-benzyl)-benzamide]
IC50 [1]: 90 nM

CS(=O)(=O)N1CCc2c(c(-c3ccc(Cl)c(CCC(=O)Nc4ccc(F)cc4)c3)nn2CCCN2CCOCC2)C1 [Example 293, 3-{2-Chloro-5-[5-methanesulfonyl-1-(3-morpholin-4-yl-propyl)-4,5,6,7-tetrahydro-1H-pyrazolo[4,3-c]pyridin-3-yl]-phenyl}-N-(4-fluoro-phenyl)-propionamide]
IC50 [1]: 3000 nM

CS(=O)(=O)N1CCc2c(c(-c3ccc(C(F)(F)F)c(CNC(=O)c4ccc(F)cc4)c3)nn2CC(O)CN2CCC(O)C2)C1 (stereo not drawn) [Example 27, 4-Fluoro-N-(5-{1-[2-hydroxy-3-(3-hydroxy-pyrrolidin-1-yl)-propyl]-5-methanesulfonyl-4,5,6,7-tetrahydro-1H-pyrazolo[4,3-c]pyridin-3-yl}-2-trifluoromethyl-benzyl)-benzamide]
IC50 [1]: 230 nM

CS(=O)(=O)N1CCc2c(c(-c3ccc(C(F)(F)F)c(CNC(=O)C4CCCCC4)c3)nn2CC(O)CN2CCCC2)C1 (stereo not drawn) [Example 168, Cyclohexanecarboxylic acid 5-[1-(2-hydroxy-3-pyrrolidin-1-yl-propyl)-5-methanesulfonyl-4,5,6,7-tetrahydro-1H-pyrazolo[4,3-c]pyridin-3-yl}-2-trifluoromethyl-benzylamide]
IC50 [1]: 500 nM

CS(=O)(=O)N1CCc2c(c(-c3ccc(Cl)c(CNC(=O)c4cc5ccccc5s4)c3)nn2CCCN2CCCC2)C1 [Example 164, Benzo[b]thiophene-2-carboxylic acid 2-chloro-5-[5-methanesulfonyl-1-(3-pyrrolidin-1-yl-propyl)-4,5,6,7-tetrahydro-1H-pyrazolo[4,3-c]pyridin-3-yl]-benzylamide]
IC50 [1]: 410 nM

CS(=O)(=O)N1CCc2c(c(-c3ccc(Cl)c(CNC(=O)c4ccc(F)cc4)c3)nn2CC(O)CN2CCC2)C1 (stereo not drawn) [Example 73, N-{5-[1-(3-Azetidin-1-yl-2-hydroxy-propyl)-5-methanesulfonyl-4,5,6,7-tetrahydro-1H-pyrazolo[4,3-c]pyridin-3-yl]-2-chloro-benzyl}-4-fluoro-benzamide]
IC50: 200 nM

CS(=O)(=O)N1CCc2c(c(-c3ccc(C(F)(F)F)c(CNC(=O)c4ccc(F)cc4)c3)nn2CC(O)CN2CCC(C(N)=O)CC2)C1 (stereo not drawn) [Example 18, 1-[3-(3-[3-[(4-Fluoro-benzoylamino)-methyl]-4-trifluoromethyl-phenyl]-5-methanesulfonyl-4,5,6,7-tetrahydro-pyrazolo[4,3-c]pyridin-1-yl)-2-hydroxy-propyl]-piperidine-4-carboxylic acid amide]
IC50: 70 nM

CC(=O)NC1CCN(CC(O)Cn2nc(-c3ccc(C(F)(F)F)c(CNC(=O)CC(C)C)c3)c3c2CCN(S(C)(=O)=O)C3)CC1 (stereo not drawn) [Example 250, N-(5-{1-[3-(4-Acetylamino-piperidin-1-yl)-2-hydroxy-propyl]-5-methanesulfonyl-4,5,6,7-tetrahydro-1H-pyrazolo[4,3-c]pyridin-3-yl}-2-trifluoromethyl-benzyl)-3-methyl-butyramide]
IC50 [1]: 50 nM

CN(C)C1CCN(CCCn2nc(-c3ccc(C(F)(F)F)c(CNC(=O)c4ccc(F)cc4)c3)c3c2CCN(S(C)(=O)=O)C3)C1 (stereo not drawn) [Example 5, N-(5-{1-[3-(3-Dimethylamino-pyrrolidin-1-yl)-propyl]-5-methanesulfonyl-4,5,6,7-tetrahydro-1H-pyrazolo[4,3-c]pyridin-3-yl}-2-trifluoromethyl-benzyl)-4-fluoro-benzamide]
IC50 [1]: 150 nM

CS(=O)(=O)N1CCc2c(c(-c3ccc(C(F)(F)F)c(CNC(=O)c4ccc([N+](=O)[O-])cc4)c3)nn2CC(O)CN2CCCC2)C1 (stereo not drawn) [Example 212, N-{5-[1-(2-Hydroxy-3-pyrrolidin-1-yl-propyl)-5-methanesulfonyl-4,5,6,7-tetrahydro-1H-pyrazolo[4,3-c]pyridin-3-yl]-2-trifluoromethyl-benzyl}-4-nitro-benzamide]
IC50 [1]: 520 nM

CC(C)CC(=O)NCc1cc(-c2nn(CC(O)CN3CCC(NC(=O)OC(C)(C)C)CC3)c3c2CN(S(C)(=O)=O)CC3)ccc1C(F)(F)F (stereo not drawn) [Example 244]
IC50 [1]: 50 nM

CS(=O)(=O)N1CCc2c(c(-c3ccc(Cl)c(COC(=O)c4ccc(F)cc4)c3)nn2CCCN2CCCC2)C1 [Example 3, 4-Fluoro-benzoic acid 2-chloro-5-[5-methanesulfonyl-1-(3-pyrrolidin-1-yl-propyl)-4,5,6,7-tetrahydro-1H-pyrazolo[4,3-c]pyridin-3-yl]-benzyl ester]
IC50 [1]: 1320 nM

CC(=O)N1CCc2c(c(-c3ccc(C(F)(F)F)c(CNC(=O)c4ccc(F)cc4)c3)nn2CC(O)CN2CCC3(CCNC3=O)CC2)C1 (stereo not drawn) [Example 7, N-(5-{5-Acetyl-1-[2-hydroxy-3-(1-oxo-2,8-diaza-spiro[4.5]dec-8-yl)-propyl]-4,5,6,7-tetrahydro-1H-pyrazolo[4,3-c]pyridin-3-yl}-2-trifluoromethylbenzyl)-4-fluoro-benzamide]
IC50 [1]: 70 nM

CS(=O)(=O)N1CCc2c(c(-c3ccc(Cl)c(CNC(=O)c4ccc(F)cc4)c3)nn2CCCN2CCCC2)C1 [Example 35, N-{2-Chloro-5-[5-methanesulfonyl-1-(3-pyrrolidin-1-yl-propyl)-4,5,6,7-tetrahydro-1H-pyrazolo[4,3-c]pyridin-3-yl]-benzyl}-4-fluoro-benzamide]
IC50 [1]: 280 nM

CC(C)CC(=O)NCc1cc(-c2nn(CC(O)CN3CCC(N(C)C)C3)c3c2CN(S(C)(=O)=O)CC3)ccc1C(F)(F)F (stereo not drawn) [Example 249, N-(5-{1-[3-(3-Dimethylamino-pyrrolidin-1-yl)-2-hydroxy-propyl]-5-methanesulfonyl-4,5,6,7-tetrahydro-1H-pyrazolo[4,3-c]pyridin-3-yl}-2-trifluoromethyl-benzyl)-3-methyl-butyramide]
IC50: 450 nM

CC(C)CC(=O)NCc1cc(-c2nn(CC(O)CN3CCC(NS(C)(=O)=O)CC3)c3c2CN(S(C)(=O)=O)CC3)ccc1C(F)(F)F (stereo not drawn) [Example 255, N-(5-{1-[2-Hydroxy-3-(4-methanesulfonylamino-piperidin-1-yl)-propyl]-5-methanesulfonyl-4,5,6,7-tetrahydro-1H-pyrazolo[4,3-c]pyridin-3-yl}-2-trifluoromethyl-benzyl)-3-methyl-butyramide]
IC50 [1]: 160 nM

CC1CCN(CC(O)Cn2nc(-c3ccc(C(F)(F)F)c(CNC(=O)c4ccc(F)cc4)c3)c3c2CCN(S(C)(=O)=O)C3)CC1 (stereo not drawn) [Example 22, 4-Fluoro-N-(5-{1-[2-hydroxy-3-(4-methyl-piperidin-1-yl)-propyl]-5-methanesulfonyl-4,5,6,7-tetrahydro-1H-pyrazolo[4,3-c]pyridin-3-yl}-2-trifluoromethyl-benzyl)-benzamide]
IC50 [1]: 100 nM

CS(=O)(=O)N1CCc2c(c(-c3ccc(C(F)(F)F)c(CNC(=O)c4cccc(C(=O)O)c4)c3)nn2CC(O)CN2CCCC2)C1 (stereo not drawn) [Example 191, N-{5-[1-(2-Hydroxy-3-pyrrolidin-1-yl-propyl)-5-methanesulfonyl-4,5,6,7-tetrahydro-1H-pyrazolo[4,3-c]pyridin-3-yl]-2-trifluoromethyl-benzyl]-isophthalamic acid]
IC50: 770 nM
